In patent US20020026053A1, “Novel 3-(substituted) -2- indolinones compounds and use thereof as inhibitors of protein kinase activity” (priority 1997, published 2002):

How the values were obtained:
PDGF-R = PDGF-R Assay (cellular ELISA, U1242 cells); type: cell-based; design: concentration or dose not given beside the values
Outline: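 Cellular ELISA for receptor autophosphorylation: after 2 hr test-compound treatment of serum-free U1242 cells at 37°C, ligand is added for 5–10 min, cells are lysed (HNTG) and receptor captured by specific antibody. Anti-phosphotyrosine plus secondary antibody with ABTS colour read at 410/630 nm, compared with compound-free control cells.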

EGFR = target: T1, EGFR (Homo sapiens, UniProt P00533); assay: Biochemical EGFR Assay; design: concentration or dose not given beside the values
T1 construct: endogenous in cells; host or cells: A431 cells (lysate, captured with SUMO1 anti-EGFR antibody)
T1 sequence (P00533 25-1210): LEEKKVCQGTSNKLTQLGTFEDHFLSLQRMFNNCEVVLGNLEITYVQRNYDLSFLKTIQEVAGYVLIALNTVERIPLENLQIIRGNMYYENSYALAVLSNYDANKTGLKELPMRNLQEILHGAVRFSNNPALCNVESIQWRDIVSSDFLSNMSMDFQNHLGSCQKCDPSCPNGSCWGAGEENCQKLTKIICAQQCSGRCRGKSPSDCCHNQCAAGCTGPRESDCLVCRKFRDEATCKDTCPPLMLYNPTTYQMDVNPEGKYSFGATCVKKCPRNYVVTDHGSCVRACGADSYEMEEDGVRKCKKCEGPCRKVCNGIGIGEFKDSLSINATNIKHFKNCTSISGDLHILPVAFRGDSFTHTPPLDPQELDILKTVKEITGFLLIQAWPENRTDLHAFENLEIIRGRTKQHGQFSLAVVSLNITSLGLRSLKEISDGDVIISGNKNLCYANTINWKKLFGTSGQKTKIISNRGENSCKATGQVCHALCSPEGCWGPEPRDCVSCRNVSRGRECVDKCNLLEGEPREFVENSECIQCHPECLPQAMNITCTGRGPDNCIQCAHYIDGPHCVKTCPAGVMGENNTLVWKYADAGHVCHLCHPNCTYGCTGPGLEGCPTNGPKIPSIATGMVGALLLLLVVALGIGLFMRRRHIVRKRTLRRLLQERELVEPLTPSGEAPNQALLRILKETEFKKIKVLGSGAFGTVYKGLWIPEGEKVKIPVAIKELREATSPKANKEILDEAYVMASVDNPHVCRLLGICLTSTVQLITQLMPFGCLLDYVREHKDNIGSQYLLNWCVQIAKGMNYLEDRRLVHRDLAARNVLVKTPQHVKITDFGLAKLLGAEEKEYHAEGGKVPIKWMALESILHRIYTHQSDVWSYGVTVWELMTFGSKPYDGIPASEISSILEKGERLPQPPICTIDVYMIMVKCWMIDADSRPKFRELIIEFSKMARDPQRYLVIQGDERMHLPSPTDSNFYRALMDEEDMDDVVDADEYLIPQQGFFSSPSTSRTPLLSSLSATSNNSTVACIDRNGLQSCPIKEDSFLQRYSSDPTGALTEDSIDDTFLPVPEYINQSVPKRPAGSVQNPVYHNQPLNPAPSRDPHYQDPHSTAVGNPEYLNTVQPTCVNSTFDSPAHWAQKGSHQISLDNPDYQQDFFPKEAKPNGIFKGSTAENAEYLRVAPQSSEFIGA
Outline: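 Readout is ABTS absorbance at 410 nm after anti-phosphotyrosine and HRP-antibody detection of EGFR autophosphorylation. The kinase was immunocaptured from A431 lysate, exposed 30 min to test compound diluted 1:10 in TBS, then phosphorylated for 5 min with ATP/MnCl2 before an EDTA stop.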

O=C1Nc2ccc(I)cc2C1=Cc1ccc(Br)s1 [10734/B11]
PDGF Kinase % Inhibition (P.119) (PDGF-R): −5.5% | Biochem EGFR % Inhibition (P.167) (EGFR): 50.9%

CCOc1cccc(C=C2C(=O)Nc3ccc(Br)c(C)c32)c1O [10734/C02]
PDGF Kinase % Inhibition (P.119) (PDGF-R): 36.0% | Biochem EGFR % Inhibition (P.167) (EGFR): −6.7%

Cc1c(Br)ccc2c1C(=Cc1cc(Cl)cc(Cl)c1O)C(=O)N2 [10734/C03]
PDGF Kinase % Inhibition (P.119) (PDGF-R): 24.5% | Biochem EGFR % Inhibition (P.167) (EGFR): 48.6%

Cc1c(Br)ccc2c1C(=Cc1cc(Cl)ccc1O)C(=O)N2 [10734/C04]
PDGF Kinase % Inhibition (P.119) (PDGF-R): 24.5% | Biochem EGFR % Inhibition (P.167) (EGFR): 38.1%

CCN(CC)c1ccc(C=C2C(=O)Nc3ccc(Br)c(C)c32)c(O)c1 [10734/C05]
PDGF Kinase % Inhibition (P.119) (PDGF-R): 3.8% | Biochem EGFR % Inhibition (P.167) (EGFR): 9.3%

Cc1c(Br)ccc2c1C(=Cc1ccc([N+](=O)[O-])cc1)C(=O)N2 [10734/C06]
PDGF Kinase % Inhibition (P.119) (PDGF-R): −0.2% | Biochem EGFR % Inhibition (P.167) (EGFR): 18.4%

Cc1c(Br)ccc2c1C(=Cc1cc(Br)cc(Br)c1O)C(=O)N2 [10734/C07]
PDGF Kinase % Inhibition (P.119) (PDGF-R): 32.0% | Biochem EGFR % Inhibition (P.167) (EGFR): 41.0%

Cc1c(Br)ccc2c1C(=Cc1cccc(F)c1O)C(=O)N2 [10734/C08]
PDGF Kinase % Inhibition (P.119) (PDGF-R): 5.5% | Biochem EGFR % Inhibition (P.167) (EGFR): 35.1%

Cc1c(Br)ccc2c1C(=Cc1ccc(O)c(Br)c1)C(=O)N2 [10734/C09]
PDGF Kinase % Inhibition (P.119) (PDGF-R): 11.3% | Biochem EGFR % Inhibition (P.167) (EGFR): 36.2%

Cc1c(Br)ccc2c1C(=Cc1ccc(C(C)(C)C)cc1)C(=O)N2 [10734/C10]
PDGF Kinase % Inhibition (P.119) (PDGF-R): 17.4% | Biochem EGFR % Inhibition (P.167) (EGFR): 24.4%

Cc1c(Br)ccc2c1C(=Cc1ccc(Br)s1)C(=O)N2 [10734/C11]
PDGF Kinase % Inhibition (P.119) (PDGF-R): 9.1% | Biochem EGFR % Inhibition (P.167) (EGFR): 18.0%

CCOc1cccc(C=C2C(=O)Nc3ccc(S(=O)(=O)NC)cc32)c1O [10734/D02]
PDGF Kinase % Inhibition (P.119) (PDGF-R): 6.4% | Biochem EGFR % Inhibition (P.167) (EGFR): 5.2%

CNS(=O)(=O)c1ccc2c(c1)C(=Cc1cc(Cl)cc(Cl)c1O)C(=O)N2 [10734/D03]
PDGF Kinase % Inhibition (P.119) (PDGF-R): 24.1% | Biochem EGFR % Inhibition (P.167) (EGFR): 19.6%

CNS(=O)(=O)c1ccc2c(c1)C(=Cc1cc(Cl)ccc1O)C(=O)N2 [10734/D04]
PDGF Kinase % Inhibition (P.119) (PDGF-R): 13.5% | Biochem EGFR % Inhibition (P.167) (EGFR): −10.7%

CCN(CC)c1ccc(C=C2C(=O)Nc3ccc(S(=O)(=O)NC)cc32)c(O)c1 [10734/D05]
PDGF Kinase % Inhibition (P.119) (PDGF-R): 8.2% | Biochem EGFR % Inhibition (P.167) (EGFR): −9.6%

CNS(=O)(=O)c1ccc2c(c1)C(=Cc1ccc([N+](=O)[O-])cc1)C(=O)N2 [10734/D06]
PDGF Kinase % Inhibition (P.119) (PDGF-R): −9.1% | Biochem EGFR % Inhibition (P.167) (EGFR): 1.3%

CNS(=O)(=O)c1ccc2c(c1)C(=Cc1cc(Br)cc(Br)c1O)C(=O)N2 [10734/D07]
PDGF Kinase % Inhibition (P.119) (PDGF-R): 28.1% | Biochem EGFR % Inhibition (P.167) (EGFR): 51.1%

CNS(=O)(=O)c1ccc2c(c1)C(=Cc1cccc(F)c1O)C(=O)N2 [10734/D08]
PDGF Kinase % Inhibition (P.119) (PDGF-R): 2.0% | Biochem EGFR % Inhibition (P.167) (EGFR): −13.7%

CNS(=O)(=O)c1ccc2c(c1)C(=Cc1ccc(O)c(Br)c1)C(=O)N2 [10734/D09]
PDGF Kinase % Inhibition (P.119) (PDGF-R): 42.2% | Biochem EGFR % Inhibition (P.167) (EGFR): 21.0%

CNS(=O)(=O)c1ccc2c(c1)C(=Cc1ccc(C(C)(C)C)cc1)C(=O)N2 [10734/D10]
PDGF Kinase % Inhibition (P.119) (PDGF-R): 9.9% | Biochem EGFR % Inhibition (P.167) (EGFR): −4.4%

CNS(=O)(=O)c1ccc2c(c1)C(=Cc1ccc(Br)s1)C(=O)N2 [10734/D11]
PDGF Kinase % Inhibition (P.119) (PDGF-R): 17.0% | Biochem EGFR % Inhibition (P.167) (EGFR): 14.6%

CCOc1cccc(C=C2C(=O)Nc3ccc(S(=O)(=O)Nc4ccc(C(F)(F)F)cc4)cc32)c1O [10734/E02]
PDGF Kinase % Inhibition (P.119) (PDGF-R): 50.1% | Biochem EGFR % Inhibition (P.167) (EGFR): −10.8%

O=C1Nc2ccc(S(=O)(=O)Nc3ccc(C(F)(F)F)cc3)cc2C1=Cc1cc(Cl)cc(Cl)c1O [10734/E03]
PDGF Kinase % Inhibition (P.119) (PDGF-R): 27.2% | Biochem EGFR % Inhibition (P.167) (EGFR): 55.0%

O=C1Nc2ccc(S(=O)(=O)Nc3ccc(C(F)(F)F)cc3)cc2C1=Cc1cc(Cl)ccc1O [10734/E04]
PDGF Kinase % Inhibition (P.119) (PDGF-R): 26.7% | Biochem EGFR % Inhibition (P.167) (EGFR): −7.8%

CCN(CC)c1ccc(C=C2C(=O)Nc3ccc(S(=O)(=O)Nc4ccc(C(F)(F)F)cc4)cc32)c(O)c1 [10734/E05]
PDGF Kinase % Inhibition (P.119) (PDGF-R): 17.9% | Biochem EGFR % Inhibition (P.167) (EGFR): 7.9%

O=C1Nc2ccc(S(=O)(=O)Nc3ccc(C(F)(F)F)cc3)cc2C1=Cc1ccc([N+](=O)[O-])cc1 [10734/E06]
PDGF Kinase % Inhibition (P.119) (PDGF-R): 13.5% | Biochem EGFR % Inhibition (P.167) (EGFR): 6.3%

O=C1Nc2ccc(S(=O)(=O)Nc3ccc(C(F)(F)F)cc3)cc2C1=Cc1cc(Br)cc(Br)c1O [10734/E07]
PDGF Kinase % Inhibition (P.119) (PDGF-R): 8.2% | Biochem EGFR % Inhibition (P.167) (EGFR): 82.4%

O=C1Nc2ccc(S(=O)(=O)Nc3ccc(C(F)(F)F)cc3)cc2C1=Cc1cccc(F)c1O [10734/E08]
PDGF Kinase % Inhibition (P.119) (PDGF-R): 13.0% | Biochem EGFR % Inhibition (P.167) (EGFR): 24.2%

O=C1Nc2ccc(S(=O)(=O)Nc3ccc(C(F)(F)F)cc3)cc2C1=Cc1ccc(O)c(Br)c1 [10734/E09]
PDGF Kinase % Inhibition (P.119) (PDGF-R): 1.1% | Biochem EGFR % Inhibition (P.167) (EGFR): 73.0%

CC(C)(C)c1ccc(C=C2C(=O)Nc3ccc(S(=O)(=O)Nc4ccc(C(F)(F)F)cc4)cc32)cc1 [10734/E10]
PDGF Kinase % Inhibition (P.119) (PDGF-R): 29.8% | Biochem EGFR % Inhibition (P.167) (EGFR): −5.0%

O=C1Nc2ccc(S(=O)(=O)Nc3ccc(C(F)(F)F)cc3)cc2C1=Cc1ccc(Br)s1 [10734/E11]
PDGF Kinase % Inhibition (P.119) (PDGF-R): 16.1% | Biochem EGFR % Inhibition (P.167) (EGFR): −8.0%

CCOc1cccc(C=C2C(=O)Nc3ccc(S(=O)(=O)N4CCOCC4)cc32)c1O [10734/F02]
PDGF Kinase % Inhibition (P.119) (PDGF-R): 10.4% | Biochem EGFR % Inhibition (P.167) (EGFR): 0.7%

O=C1Nc2ccc(S(=O)(=O)N3CCOCC3)cc2C1=Cc1cc(Cl)cc(Cl)c1O [10734/F03]
PDGF Kinase % Inhibition (P.119) (PDGF-R): −24.1% | Biochem EGFR % Inhibition (P.167) (EGFR): 24.8%

O=C1Nc2ccc(S(=O)(=O)N3CCOCC3)cc2C1=Cc1cc(Cl)ccc1O [10734/F04]
PDGF Kinase % Inhibition (P.119) (PDGF-R): 25.0% | Biochem EGFR % Inhibition (P.167) (EGFR): 3.9%

CCN(CC)c1ccc(C=C2C(=O)Nc3ccc(S(=O)(=O)N4CCOCC4)cc32)c(O)c1 [10734/F05]
PDGF Kinase % Inhibition (P.119) (PDGF-R): −1.1% | Biochem EGFR % Inhibition (P.167) (EGFR): −15.6%

O=C1Nc2ccc(S(=O)(=O)N3CCOCC3)cc2C1=Cc1ccc([N+](=O)[O-])cc1 [10734/F06]
PDGF Kinase % Inhibition (P.119) (PDGF-R): −21.4% | Biochem EGFR % Inhibition (P.167) (EGFR): −17.1%

O=C1Nc2ccc(S(=O)(=O)N3CCOCC3)cc2C1=Cc1cc(Br)cc(Br)c1O [10734/F07]
PDGF Kinase % Inhibition (P.119) (PDGF-R): −5.1% | Biochem EGFR % Inhibition (P.167) (EGFR): 33.7%

O=C1Nc2ccc(S(=O)(=O)N3CCOCC3)cc2C1=Cc1cccc(F)c1O [10734/F08]
PDGF Kinase % Inhibition (P.119) (PDGF-R): −6.0% | Biochem EGFR % Inhibition (P.167) (EGFR): −23.6%

O=C1Nc2ccc(S(=O)(=O)N3CCOCC3)cc2C1=Cc1ccc(O)c(Br)c1 [10734/F09]
PDGF Kinase % Inhibition (P.119) (PDGF-R): −17.4% | Biochem EGFR % Inhibition (P.167) (EGFR): 3.1%

CC(C)(C)c1ccc(C=C2C(=O)Nc3ccc(S(=O)(=O)N4CCOCC4)cc32)cc1 [10734/F10]
PDGF Kinase % Inhibition (P.119) (PDGF-R): 25.8% | Biochem EGFR % Inhibition (P.167) (EGFR): −8.3%

O=C1Nc2ccc(S(=O)(=O)N3CCOCC3)cc2C1=Cc1ccc(Br)s1 [10734/F11]
PDGF Kinase % Inhibition (P.119) (PDGF-R): 16.1% | Biochem EGFR % Inhibition (P.167) (EGFR): −15.6%

CCOc1cccc(C=C2C(=O)Nc3ccc(CCCl)cc32)c1O [10734/G02]
PDGF Kinase % Inhibition (P.119) (PDGF-R): 14.8% | Biochem EGFR % Inhibition (P.167) (EGFR): 3.4%
